Source: patent US20020026052A1, “3-cyanoquinolines, 3-cyano-1,6-naphthyridines, and 3-cyano-1,7-naphthyridines as protein kinase inhibitors” (American Home Products Corporation, priority 2000, published 2002)
Where “and” joins values, the source holds several entries; their conditions need not be identical. Identical values can stand only once.

Assays:
[1] = target: Rat2 fibroblasts stably transformed with v-Src/Hu c-Src fusion gene (Homo sapiens, UniProt P12931, cells depend on it, form not given); test: Anchorage Independent Src-transformed Fibroblast Proliferation Assay; assay type: cell-based, Rat; conditions: suspension growth, MTS reagent on Day 5; read-out: anch-indep src-tx fib IC50
Experimental: Anchorage Independent Src-transformed Fibroblast Proliferation Assay
Rat2 fibroblasts stably transformed with a plasmid containing a CMV promotor controlled v-Src/Hu c-Src fusion gene in which the catalytic domain of human c-Src was inserted in place of the v-Src catalytic domain in the v-Src gene are used for the measurement of src dependent suspension growth. […] Multiple entries for a given compound indicate that it was tested multiple times.

Src = Src (Homo sapiens, UniProt P12931); test: c-Src Kinase Assay (ELISA); assay type: biochemical
Experimental: Inhibitors of Src (partially purified preparation purchased from Upstate Biotechnologies) tyrosine kinase activity are analyzed in an ELISA format. […] Horseradish Peroxidase (HRP)-conjugated anti-phosphotyrosine is used to detect phosphorylated peptide via a color reaction. Conditions recommended by the manufacturer are employed.
Reaction conditions: Five microliter aliquots of each compound prepared fresh at the time of the assay are added as a solution in lOmM HEPES pH 7.5, 10% DMSO to the reaction well. Thirty-five microliters of reaction mix containing Src, buffer and peptide/bovine serum albumin mix are added to the compound wells and incubated at 30° C. for 10 minutes (reaction buffer: 5 OmM TrisHCI pH 7.5, l0 mM MgCl2, O.lmM EGTA, 0.5 mM Na3 VO4)-1H-. The reaction is started by addition of 10 microliters of ATP, incubated at 30° C. for 1 hour, and stopped by addition of 20 microliters of 0.5 M EDTA. The reaction mixture with the phosphorylated peptide is then transferred to a streptavidin-coated microtiter plate (provided in the kit) and allowed to bind for 20 minutes. IUnbound peptide and reaction mixture is decanted and the plate is washed with PBS six times. HRP-conjugated phosphotyrosine antibody supplied in the kit is incubated with the plate for one hour, then decanted. The plate is again washed with PBS six times.
Activity is determined as % inhibition as calculated by the formula: (1−Abs/Abs(max) ) ×100=% inhibition.

Compound	GI50 [1]	IC50 (Src)	melting point
4-(2,4-Dichloro-5-methoxyanilino)-7-(3-formyl)-3-quinolinecarbonitrile [Example 112]	7300 nM	36 nM	
4-[(2,4-Dichloro-5-methoxyphenyl) amino]-7-[4-(4-morpholinyl) phenyl]-3-quinolinecarbonitrile [Example 128]	640 nM	3.2 nM	
COc1cc(Nc2c(C#N)cnc3cc(/C=C/c4ccccn4)ccc23)c(Cl)cc1Cl [Example 3, 4-(2,4-Dichloro-S-methoxyanilino)-7-[(E)-2-(2-pyrdinyl)ethenyl]-3-quinoline-carbonitrile]		11 nM	
COc1cc(Nc2c(C#N)cnc3cc(-c4ccc(C=O)s4)ccc23)c(Cl)cc1Cl [Example 52, 4-(2,4-dichloro-5-methoxyanilino)-7-(5-formyl-2-thienyl)-3-quinolinecarbonitrile]		11 nM	> 300 °C (dec.)
COc1cc(Nc2c(C#N)cnc3cc(-n4cccc4)c(OC)cc23)c(Cl)cc1Cl [Example 59, 4-(2,4-Dichloro-5-methoxyanilino)-6-methoxy-7-(1H-pyrrol-1-yl)-3-quinolinecarbonitrile]		12 nM and 15 nM	229 to 230 °C
COc1cc(Nc2c(C#N)cnc3cc(-c4ccc(CN5CCC(O)CC5)s4)ccc23)c(Cl)cc1Cl [Example 89, 4-(2,4-dichloro-5-methoxyanilino)-7-{5-[(4-hydroxy-1-piperidinyl)methyl]-2-thienyl}-3-quinolinecarbonitrile]	90 nM	0.52 nM and 0.84 nM	
COc1cc(Nc2c(C#N)cnc3cc(-c4sccc4C=O)ccc23)c(Cl)cc1Cl [Example 163, 4-(2,4-Dichloro-5-methoxyanilino)-7-(3-formyl-2-thienyl)-3-quinolinecarbonitrile]	> 10000 nM		231 to 232 °C
COc1cc(Nc2c(C#N)cnc3cc(-c4cccn4C(=O)OC(C)(C)C)ccc23)c(Cl)cc1Cl [Example 164, tert-butyl 2-[3-cyano-4-(2,4-dichloro-5-methoxyanilino)-7-quinolinyl]pyrrole-1-carboxylate]	> 10000 nM		135 °C (dec.)
COc1cc(Nc2c(C#N)cnc3cc(C#CCN4CCOCC4)c(OC)cc23)c(Cl)cc1Cl [Example 166, 4-(2,4-Dichloro-5-methoxyanilino)-6-methoxy-7-[3-(4-morpholinyl)-1-propynyl]-3-quinolinecarbonitrile]	720 nM		105 to 108 °C
COc1cc(Nc2c(C#N)cnc3cc(-c4csc(CN5CCOCC5)c4)ccc23)c(C)cc1Cl [Example 167, 4-(4-Chloro-5-methoxy-2-methylanilino)-7-[5-(4-morpholinylmethyl)-3-thienyl]-3-quinolinecarbonitrile]	900 nM		> 108 °C (dec.)
COc1cc(Nc2c(C#N)cnc3cc(-c4cccc(N)c4)ccc23)c(Cl)cc1Cl [Example 174, 7-(3-Aminophenyl)-4-[(2,4-dichloro-5-methoxyphenyl)amino]-3-quinolinecarbonitrile]	5600 nM		221 to 222 °C
COC(=O)C1CCN(Cc2ccc(-c3ccc4c(Nc5cc(OC)c(Cl)cc5Cl)c(C#N)cnc4c3)nc2)CC1 [Example 176, 1-{6-[3-Cyano-4-(2,4-dichloro-5-methoxyphenylamino)-quinolin-7-yl]-pyridin-3-ylmethyl}-piperidine-4-carboxylic acid methyl ester]	90 nM		186 to 188 °C
CCN1CCN(c2ccc(-c3ccc4c(Nc5cc(OC)c(Cl)cc5Cl)c(C#N)cnc4c3)nc2)CC1 [Example 179, 4-[(2,4-Dichloro-5-methoxyphenyl)amino]-7-[5-(4-ethyl-1-piperazinyl)-2-pyridinyl]-3-quinolinecarbonitrile]	270 nM		232 to 234 °C
COc1cc(Nc2c(C#N)cnc3cc(-c4cnc(N5CCOCC5)nc4)ccc23)c(Cl)cc1Cl [Example 186, 4-(2,4-Dichloro-5-methoxyanilino)-7-[2-(4-morpholinyl)-5-pyrimidinyl]-3-quinolinecarbonitrile]	> 10000 nM		> 260 °C
COc1cc(Nc2c(C#N)cnc3cc(-c4ccc(Oc5ccc(CN6CCOCC6)cc5)nc4)ccc23)c(Cl)cc1Cl [Example 193, 4-(2,4-Dichloro-5-methoxyanilino)-7-{6-[4-(4-morpholinylmethyl)phenoxy]-3-pyridinyl)-3-quinolinecarbonitrile]	> 10000 nM		176 to 178 °C
COc1ccc(-c2ccc3c(Nc4cc(OC)c(Cl)cc4Cl)c(C#N)cnc3c2)cc1 [Example 194, 4-(2,4-Dichloro-5-methoxyanilino)-7-(4-methoxyphenyl)-3-quinolinecarbonitrile]	> 10000 nM		210 to 212 °C
COc1cc(Nc2c(C#N)cnc3cc(-c4cnc(C=O)n4C)c(OC)cc23)c(Cl)cc1Cl [Example 228, 4-(2,4-Dichloro-5-methoxyanilino)-7-(2-formyl-1-methyl-1H-imidazol-5-yl)-6-methoxy-3-quinolinecarbonitrile]	> 10000 nM		141 to 144 °C
COc1cc(Nc2c(C#N)cnc3cc(-c4ccc(CNCCc5ccccn5)cc4)ccc23)c(Cl)cc1Cl [Example 229, 4-(2,4-Dichloro-5-methoxyanilino)-7-[4-({[2-(2-pyridinyl)ethyl]amino}-methyl)phenyl]-3-quinolinecarbonitrile]	450 nM		256 to 258 °C
COC(=O)C1CCN(Cc2ccc(-c3ccc4c(Nc5cc(OC)c(Cl)cc5Cl)c(C#N)cnc4c3)cc2)CC1 [Example 231, Methyl 1-{4-[3-cyano-4-(2,4-dichloro-5-methoxyanilino)-7-quinolinyl]benzyl}-4-piperidinecarboxylate]	390 nM		278 to 280 °C
COc1cc(Nc2c(C#N)cnc3cc(-c4cnc(CN5CCOCC5)n4C)c(OC)cc23)c(Cl)cc1Cl [Example 232, 4-(2,4-Dichloro-5-methoxyanilino)-6-methoxy-7-[1-methyl-2-(4-morpholinylmethyl)-1H-imidazol-5-yl]-3-quinolinecarbonitrile]	3500 nM		248 to 252 °C
COc1cc(Nc2c(C#N)cnc3cc(-c4ccc(CN5CCOCC5)cc4)ccc23)c(Cl)cc1C [Example 234, 4-(2-Chloro-5-methoxy4-methylanilino)-7-[4-(4-morpholinylmethyl)phenyl]3-quinolinecarbonitrile]	720 nM		140 to 143 °C
COc1cc(Nc2c(C#N)cnc3cc(-c4ccc(CN5CCOCC5)cc4)ccc23)c(Cl)cc1F [Example 235, 4-(2-Chloro-4-fluoro-5-methoxyanilino)-7-[4-(4-morpholinylmethyl)phenyl]-3-quinolinecarbonitrile]	790 nM		174 to 178 °C
COc1ccc(Cl)c(Nc2c(C#N)cnc3cc(-c4ccc(CN5CCOCC5)cc4)ccc23)c1 [Example 236, 4-(2-Chloro-5-methoxyanilino)-7-[4-(4-morpholinylmethyl)phenyl]-3-quinolinecarbonitrile]	570 nM		160 to 163 °C
COc1cc(Nc2c(C#N)cnc3cc(-c4ccc(CN5CCC(C(=O)O)CC5)cc4)ccc23)c(Cl)cc1Cl [Example 237, 1-{4-[3-Cyano-4-(2,4-dichloro-5-methoxyanilino)-7-quinolinyl]benzyl}-4-piperidinecarboxylic acid]	490 nM and 520 nM and 410 nM		248 °C
